# Results reported in US4613601A, “(1-benzodioxin-6-ylmethyl)-4-substituted piperazines having antipsychotic activity” (Adir, S.A.R.L., priority 1982, dated 1986).
# Assays:
# [1] = tested on: dopaminergic inhibitory auto-receptors; test: motor depressant effects (hypokinesia) in mice; type: in vivo; conditions: all doses studied from 20 to 160 mg/kg I.P.
# Source text: The motor depressant effects of the compound of Example 1 have been studied in mice.
# [2] = tested on: pre-synaptic dopaminergic receptors; test: hypokinesia in the normal animal, mice or rats; type: in vivo
# [3] = tested on: d-amphetamine-induced dopaminergic hyperactivity; test: inhibition of d-amphetamine-induced motor phenomena in mice (activograph); type: in vivo
# Description: the administration of d-amphetamine, at a dose of 1 to 3 mg/kg I.P. in mice, releases the supervention of motor phenomena registered using an activograph.
# [4] = tested on: dopaminergic inhibitory auto-receptors; test: electro-encephalogram / sleep in rats; type: in vivo
# [5] = tested on: dopaminergic post-synaptic receptors of the striatum; test: stereotyped movements in rats (Quinton and Halliwell scale); type: in vivo; conditions: for total stereotypy score in 3 hours: 6 observations; for total stereotypy score in 3 hours / total stereotypy score: groups of 8 rats; for stimulating activity on the dopaminergic post-synaptic receptors of the striatum: rats, from stereotypy scores
# Description: The research for stereotyped movements, proof of the existence of a direct post-synaptic dopaminergic stimulating activity, has been carried out in rats using the scale described by R. M. QUINTON and H. HALLIWELL, Nature, 200, 1963, 178-179. The experiment lasts 3 hours, the animals are observed every 30 minutes. The groups are made up of 8 rats each, and the results are the total scores of the accumulated individual scores of the stereotypies observed during the experiment (6 observations).
# [6] = tested on: conditioned avoidance response; test: conditioned avoidance response inhibition in the rat (shuttle box avoidance); type: in vivo, male WISTAR rats
# Description: The method used is based on the works of COURVOISIER et al., Arch. Int. Pharmacodyn. 92, 305-361, (1953), and of JANSSEN et al., Arzneim. Forsch. 15, 104-117, (1965).
# The experiments are carried out on groups of 10 to 20 male WISTAR rats weighing between 300 g and 400 g. Each animal is submitted to two day-sessions per week, one after treatment carried out on the substance studied at a given dose, 30 minutes before the session, the other following the administration of a solute of NaCl (0.154M)--I.P. route in both cases. The compound of Example 1 has been administered in solution in sterile bi-distilled water, at doses of 6.25, 12.5, 25, 50 and 75 mg/kg. I.P.
# Piribedil chosen as reference product has been administered at the same doses and by the same route. This method is used to show the anti-psychotic activity of a substance. It is known that anti-psychotic agents inhibit the conditioned shunning response, without modifying the escape response following an electric shock (Unconditioned response).
# [7] = tested on: hypersensitive post-synaptic dopaminergic receptors; test: rotations in rats with unilateral lesions of the nigro-neostriatal tract (Ungerstedt); type: in vivo, rat
# Description: The central dopaminergic activity for the compounds of the present invention was determined, especially by measuring the rotations of the rat according to the method of Ungerstedt U., European Journal of Pharmacology, 5, (1968) 107-110. For the compounds of the present invention, administered at a dose of 25 mg/kg subcutaneously, up to 380 rotations were obtained in 45 minutes.
# Experiments have also been carried out on rats with unilateral lesions of the nigro-neostriatal tract.
# These lesions are produced by local micro-injection of 6-hydroxy dopamine into the black substance of the rat, according to U. Ungerstedt; Europ. J. Pharmacol. 5, 1968, 107-110 and Advances in Neurology, vol. 3, Raven Press., New York (1973).
# This treatment leads to a degeneration of the dopaminergic neurons coming from the nigra-substantia, going towards the neostriatum.
# Furthermore, following this denervation, the post-synaptic receptors situated above the pithed tract, i.e., above the synapse which leads to the pithed neuron, become hypersensitive to the pharmacological dopaminergic agents administered. This direct activation of hypersensitive dopaminergic receptors then produces the supervention of a motor rotation behaviour in treated rats.
# When the left nigro-striatal tract is destroyed, the rotations occur towards the right, on the opposite side to the lesion. The experimental groups each contain from 5 to 6 animals.
compound,measurement,setting,value
"C1=COc2cc(CN3CCN(c4ncccn4)CC3)ccc2O1 [Example 1, 1-(benzodioxin-6-ylmethyl)-4-(pyrimidin-2-yl)piperazine]",hypokinesia in mice,[1],provokes in mice a hypokinesia at all the doses studied
same,hypokinesia in the normal animal,[2],only provokes an hypokinesia
same,antagonism of the effects of d-amphetamine,[3]; 20 mg/kg compound against 1 mg/kg I.P. d-amphetamine,antagonise
same,antagonism of the effects of d-amphetamine,[3]; 40 mg/kg compound against 3 mg/kg I.P. d-amphetamine,antagonise
same,inhibition of the motor phenomena due to d-amphetamine,[3]; joint administration with d-amphetamine 1 to 3 mg/kg I.P.,inhibition of the motor phenomena due to the amphetamine
same,central effects observed in the electro-encephalogram,[4],central depressant effects
same,"total sleep (slow sleep and paradoxal sleep), words",[4]; 30 mg/kg I.P.,increase in total sleep
same,increase in total sleep,"[4]; 30 mg/kg I.P., second hour following administration",100%
same,stereotyped movements,[5]; 80 mg/kg I.P. or S.C.,very few stereotyped movements
same,total stereotypy score in 3 hours,[5]; 80 mg/kg I.P.,52
same,total stereotypy score in 3 hours,[5]; 80 mg/kg S.C.,49
same,stereotypy in normal rats,[5]; normal rats,practically no sterotypy
same,stimulating activity on the dopaminergic post-synaptic receptors of the striatum,[5],no important stimulating activity
same,"Crossings, % over 20",[6]; 6.25 mg/kg I.P.,-3%
same,"Escape response, % in relation to control animals",[6]; 6.25 mg/kg I.P.,-14%
same,"Escape response, % over 20",[6]; 6.25 mg/kg I.P.,1.5%
same,"Escape response, Number over 20",[6]; 6.25 mg/kg I.P.,0.30
same,"Shunning response, % in relation to control animals",[6]; 6.25 mg/kg I.P.,+0.25%
same,"Shunning response, % over 20",[6]; 6.25 mg/kg I.P.,98.5%
same,"Shunning response, Number over 20",[6]; 6.25 mg/kg I.P.,19.7
same,"Crossings, Number over 20","[6]; 6.25 mg/kg I.P., * = P < 0.05",20.6
same,"Crossings, % over 20",[6]; 12.50 mg/kg I.P.,-15%
same,"Escape response, % in relation to control animals",[6]; 12.50 mg/kg I.P.,+71%
same,"Escape response, % over 20",[6]; 12.50 mg/kg I.P.,3%
same,"Escape response, Number over 20",[6]; 12.50 mg/kg I.P.,0.6
same,"Shunning response, % in relation to control animals",[6]; 12.50 mg/kg I.P.,-1%
same,"Shunning response, % over 20",[6]; 12.50 mg/kg I.P.,97%
same,"Shunning response, Number over 20",[6]; 12.50 mg/kg I.P.,19.4
same,"Crossings, Number over 20","[6]; 12.50 mg/kg I.P., * = P < 0.05",18.0
same,"Crossings, % over 20",[6]; 25 mg/kg I.P.,-9%
same,"Escape response, % in relation to control animals",[6]; 25 mg/kg I.P.,+71%
same,"Escape response, % over 20",[6]; 25 mg/kg I.P.,3%
same,"Escape response, Number over 20",[6]; 25 mg/kg I.P.,0.6
same,"Shunning response, % in relation to control animals",[6]; 25 mg/kg I.P.,-1%
same,"Shunning response, % over 20",[6]; 25 mg/kg I.P.,97%
same,"Shunning response, Number over 20",[6]; 25 mg/kg I.P.,19.4
same,"Crossings, Number over 20","[6]; 25 mg/kg I.P., * = P < 0.05",19.2
same,"Crossings, % change in relation to control animals",[6]; 50 mg/kg I.P.,+8%
same,"Escape response, % in relation to control animals",[6]; 50 mg/kg I.P.,+814%
same,"Escape response, % over 20",[6]; 50 mg/kg I.P.,16%
same,"Shunning response, % in relation to control animals",[6]; 50 mg/kg I.P.,-15%
same,"Shunning response, % over 20",[6]; 50 mg/kg I.P.,84%
same,diminution of the number of shunning responses,[6]; 50 mg/kg I.P.,15%
same,increase of the escape responses,[6]; 50 mg/kg I.P.,800%
same,"Crossings, Number over 20","[6]; 50 mg/kg I.P., * = P < 0.05",22.9
same,"Escape response, Number over 20","[6]; 50 mg/kg I.P., * = P < 0.05",3.2
same,"Shunning response, Number over 20","[6]; 50 mg/kg I.P., * = P < 0.05",16.8
same,"Crossings, % change in relation to control animals",[6]; 75 mg/kg I.P.,+63%
same,"Escape response, % in relation to control animals",[6]; 75 mg/kg I.P.,+533%
same,"Escape response, % over 20",[6]; 75 mg/kg I.P.,9.5%
same,"Shunning response, % in relation to control animals",[6]; 75 mg/kg I.P.,-8%
same,"Shunning response, % over 20",[6]; 75 mg/kg I.P.,90.5%
same,diminution of the number of shunning responses,[6]; 75 mg/kg I.P.,8%
same,increase of the escape responses,[6]; 75 mg/kg I.P.,500%
same,increase of the number of spontaneous crossings,[6]; 75 mg/kg I.P.,63%
same,"mobility depressor, sedative, cataleptigenic effect",[6]; 75 mg/kg I.P.,"neither a mobility depressor effect, nor sedative effect, nor cataleptigenic effect"
same,"Crossings, Number over 20","[6]; 75 mg/kg I.P., * = P < 0.05",25.4
same,"Escape response, Number over 20","[6]; 75 mg/kg I.P., * = P < 0.05",1.9
same,"Shunning response, Number over 20","[6]; 75 mg/kg I.P., * = P < 0.05",18.1
same,conditioned and unconditioned responses,[6]; I.P.,reduces the conditioned responses without diminishing the unconditioned escape responses
same,average number of rotations in 45 minutes,[7]; 12.5 mg/kg S.C.,182 rotations
same,average number of rotations in 45 minutes,[7]; 25 mg/kg S.C.,380 rotations
same,average number of rotations in 45 minutes,[7]; 50 mg/kg P.O.,543 rotations
same,rotations in the unilaterally pithed rat,"[7]; right side, opposite side to the lesion",numerous rotations
"c1cnc(N2CCN(Cc3ccc4c(c3)OCO4)CC2)nc1 [Piribedil, reference compound]",reduction of total sleep,"[4]; E.E.G., same dose (30 mg/kg I.P.)",50%
same,total stereotypy score,[5]; 20 mg/kg I.P.,145
same,total stereotypy score,[5]; 40 mg/kg I.P.,246
same,stimulating activity on the dopaminergic post-synaptic receptors of the striatum,[5],stimulates these receptors
same,"Crossings, % change in relation to control animals",[6]; 6.25 mg/kg I.P.,+50%
same,"Escape response, % in relation to control animals",[6]; 6.25 mg/kg I.P.,+50%
same,"Escape response, % over 20",[6]; 6.25 mg/kg I.P.,3%
same,"Escape response, Number over 20",[6]; 6.25 mg/kg I.P.,0.6
same,"Shunning response, % in relation to control animals",[6]; 6.25 mg/kg I.P.,-1%
same,"Shunning response, % over 20",[6]; 6.25 mg/kg I.P.,97%
same,"Shunning response, Number over 20",[6]; 6.25 mg/kg I.P.,19.4
same,"Crossings, Number over 20","[6]; 6.25 mg/kg I.P., * = P < 0.05",29.5
same,"Crossings, % change in relation to control animals",[6]; 12.50 mg/kg I.P.,+47%
same,"Escape response, % in relation to control animals",[6]; 12.50 mg/kg I.P.,0%
same,"Escape response, % over 20",[6]; 12.50 mg/kg I.P.,2%
same,"Escape response, Number over 20",[6]; 12.50 mg/kg I.P.,0.4
same,"Shunning response, % in relation to control animals",[6]; 12.50 mg/kg I.P.,0%
same,"Shunning response, % over 20",[6]; 12.50 mg/kg I.P.,98%
same,"Shunning response, Number over 20",[6]; 12.50 mg/kg I.P.,19.1
same,"Crossings, Number over 20","[6]; 12.50 mg/kg I.P., * = P < 0.05",28.9
same,"Crossings, % change in relation to control animals",[6]; 25 mg/kg I.P.,+148%
same,"Escape response, % in relation to control animals",[6]; 25 mg/kg I.P.,+149%
same,"Escape response, % over 20",[6]; 25 mg/kg I.P.,5%
same,"Escape response, Number over 20",[6]; 25 mg/kg I.P.,1
same,"Shunning response, % in relation to control animals",[6]; 25 mg/kg I.P.,-3%
same,"Shunning response, % over 20",[6]; 25 mg/kg I.P.,95%
same,"Shunning response, Number over 20",[6]; 25 mg/kg I.P.,19
same,"Crossings, Number over 20","[6]; 25 mg/kg I.P., * = P < 0.05",48.9
same,"Crossings, % change in relation to control animals",[6]; 50 mg/kg I.P.,+118%
same,"Escape response, % in relation to control animals",[6]; 50 mg/kg I.P.,+50%
same,"Escape response, % over 20",[6]; 50 mg/kg I.P.,3%
same,"Shunning response, % in relation to control animals",[6]; 50 mg/kg I.P.,-1%
same,"Shunning response, % over 20",[6]; 50 mg/kg I.P.,97%
same,"Crossings, Number over 20","[6]; 50 mg/kg I.P., * = P < 0.05",42.9
same,"Escape response, Number over 20","[6]; 50 mg/kg I.P., * = P < 0.05",0.6
same,"Shunning response, Number over 20","[6]; 50 mg/kg I.P., * = P < 0.05",19.4
same,"Crossings, % change in relation to control animals",[6]; 75 mg/kg I.P.,+115%
same,"Escape response, % in relation to control animals",[6]; 75 mg/kg I.P.,+633%
same,"Escape response, % over 20",[6]; 75 mg/kg I.P.,11%
same,"Shunning response, % in relation to control animals",[6]; 75 mg/kg I.P.,-10%
same,"Shunning response, % over 20",[6]; 75 mg/kg I.P.,89%
same,"Crossings, Number over 20","[6]; 75 mg/kg I.P., * = P < 0.05",33.5
same,"Escape response, Number over 20","[6]; 75 mg/kg I.P., * = P < 0.05",2.2
same,"Shunning response, Number over 20","[6]; 75 mg/kg I.P., * = P < 0.05",17.8
same,effect on the shunning responses,[6]; 6.25 to 75 mg/kg I.P.,no agonistic effect on the shunning responses
same,average number of rotations in 45 minutes,[7]; 50 mg/kg P.O.,256 rotations
